The values below come from ChEMBL document CHEMBL1148094, “Graminone B, a novel lignan with vasodilative activity from Imperata cylindrica” (1994).

Each structure is given as a SMILES string. The source made the active and inactive calls. The rule behind the calls is not given here.

One assay is filed under the species Oryctolagus cuniculus. Briefly: Vasorelaxant activity in rabbit aorta assessed as inhibition of norepinephrine-induced contractile response at 100 uM. It is filed as functional, tissue-based.
Assay [1] is described as follows: Vasorelaxant activity in rabbit aorta assessed as inhibition of KCl-induced contractile response at 100 uM. It counts as functional. Conditions: Oryctolagus cuniculus.

In general, inhibition refers to the percentage by which the read-out fell short of the control. For the molecule `COc1cc(O)cc([C@@H]2OC[C@@H]3[C@H]2C(=O)O[C@H]3c2cc(O)c(OC)c(OC)c2)c1` [GRAMINONE B], the outcome in the assay listed under Oryctolagus cuniculus was inactive. The inhibition at 100 µM in assay [1] came out at 50%.
